Measured values from ChEMBL document CHEMBL1130504, “Synthesis and biological activity of artificial analogs of mycalamide A” (Bioorg Med Chem Lett, 1997).
Converted amounts (≈) assume the structure as drawn.

Legend:
HEL [1] = test: (§1) In vitro minimum inhibitory concentration for antiviral activity was tested against Varicella-Zoster virus(VZV); assay type: functional; settings: Homo sapiens
HeLa = test: In vitro inhibitory concentration for cytotoxic activity was tested against HeLa cells; assay type: functional, cell-based; settings: Homo sapiens
HEL [2] = test: In vitro inhibitory concentration for antiviral activity was tested against HEL cells; assay type: functional, cell-based; settings: Homo sapiens
Vero [3] = test: (§2) In vitro minimum inhibitory concentration for antiviral activity was tested against Herpes simplex virus type 1(HSV-1); assay type: functional; settings: Chlorocebus sabaeus
Vero [4] = test: In vitro inhibitory concentration for antiviral activity was tested against vero cells; assay type: functional, cell-based; settings: Chlorocebus sabaeus
Human alphaherpesvirus 3 = test: as §1; assay type: functional
Human alphaherpesvirus 1 = test: as §2; assay type: functional

SMILES	MIC (HEL [1]) [µg/mL]	IC50 (HeLa) [µg/mL]	IC50 (HEL [2]) [µg/mL]	MIC (Vero [3]) [µg/mL]	IC50 (Vero [4]) [µg/mL]	MIC (Human alphaherpesvirus 3) [µg/mL]	MIC (Human alphaherpesvirus 1) [µg/mL]
C=C1C[C@](OC)([C@H](O)C(=O)N[C@H]2OCO[C@H]3[C@@H]2O[C@H](C[C@H](O)CO)C(C)(C)[C@@H]3OC)O[C@H](C)[C@@H]1C [MYCALAMIDE A]	< 0.391	< 0.03	< 0.391	< 0.391	< 0.391		
CO[C@@H]1[C@H]2OCO[C@@H](NC(=O)[C@@H](O)[C@@]3(OC)CCC[C@@H](C)O3)[C@H]2O[C@H](C[C@H](O)CO)C1(C)C	3.12 (≈ 6.54 µM)	> 10	> 50	50 (≈ 105 µM)	> 50		
O=c1[nH]cc(F)c(=O)[nH]1 [FLUOROURACIL]		3 (≈ 23.1 µM)					
C=C1C[C@](OC)([C@H](O)C(=O)N[C@@H]2OCO[C@H]3[C@@H]2O[C@H](C[C@H](O)CO)C(C)(C)[C@@H]3OC)O[C@H](C)[C@@H]1C	1.56 (≈ 3.1 µM)	3 (≈ 5.96 µM)	12.5 (≈ 24.8 µM)	12.5 (≈ 24.8 µM)	12.5 (≈ 24.8 µM)		
C=C1C[C@](OC)([C@@H](O)C(=O)N[C@@H]2OCO[C@H]3[C@@H]2O[C@H](C[C@H](O)CO)C(C)(C)[C@@H]3OC)O[C@H](C)[C@@H]1C	12.5 (≈ 24.8 µM)	> 10	> 50	50 (≈ 99.3 µM)	> 50		
C=C1C[C@](OC)([C@H](O)C(=O)N[C@H]2OCO[C@@H]3[C@@H](OC)[C@@H]4OC(C)(C)OC[C@H]4O[C@@H]32)O[C@H](C)[C@@H]1C		3 (≈ 6.15 µM)	> 50		> 50	12.5 (≈ 25.6 µM)	50 (≈ 103 µM)
C=C1C[C@@H](C)O[C@@](OC)([C@H](O)C(=O)N[C@H]2OCO[C@H]3[C@@H]2O[C@H](C[C@H](O)CO)C(C)(C)[C@@H]3OC)C1	< 0.391	< 0.03	< 0.391	< 0.391	< 0.391		
C=C1C[C@](OC)([C@H](O)C(=O)N[C@@H]2OCO[C@@H]3[C@@H](OC)[C@H](O)[C@@H](CO)O[C@@H]32)O[C@H](C)[C@@H]1C	25 (≈ 55.9 µM)	> 10	> 50	> 50	> 50		
CO[C@@H]1[C@H]2OCO[C@H](NC(=O)[C@@H](O)[C@@]3(OC)CCC[C@@H](C)O3)[C@H]2O[C@H](C[C@H](O)CO)C1(C)C	< 0.391	0.03 (≈ 0.0628 µM)	1.56 (≈ 3.27 µM)	3.12 (≈ 6.54 µM)	0.391 (≈ 0.819 µM)		
Nc1nc2c(ncn2COCCO)c(=O)[nH]1 [ACYCLOVIR]			> 50		50 (≈ 222 µM)		1.56 (≈ 6.94 µM)
C=C1C[C@@H](C)O[C@@](OC)([C@H](O)C(=O)N[C@@H]2OCO[C@H]3[C@@H]2O[C@H](C[C@H](O)CO)C(C)(C)[C@@H]3OC)C1	1.56 (≈ 3.19 µM)	3 (≈ 6.13 µM)	> 50	50 (≈ 102 µM)	50 (≈ 102 µM)		
C=C1C[C@](OC)([C@H](O)C(=O)N[C@H]2OCO[C@@H]3[C@@H](OC)[C@H](O)[C@@H](CO)O[C@@H]32)O[C@H](C)[C@@H]1C	3.12 (≈ 6.98 µM)	1 (≈ 2.23 µM)	> 50	25 (≈ 55.9 µM)	25 (≈ 55.9 µM)		
C=C1C[C@](OC)([C@@H](O)C(=O)N[C@H]2OCO[C@H]3[C@@H]2O[C@H](C[C@H](O)CO)C(C)(C)[C@@H]3OC)O[C@H](C)[C@@H]1C	< 0.391	> 10	12.5 (≈ 24.8 µM)	50 (≈ 99.3 µM)	12.5 (≈ 24.8 µM)		
C=C1C[C@](OC)([C@H](O)C(=O)N[C@@H]2OCO[C@@H]3[C@@H](OC)[C@@H]4OC(C)(C)OC[C@H]4O[C@@H]32)O[C@H](C)[C@@H]1C		10 (≈ 20.5 µM)	> 50		50 (≈ 103 µM)	12.5 (≈ 25.6 µM)	50 (≈ 103 µM)
